Reference: ChEMBL document CHEMBL5506074, “Discovery and Optimization of Tetrahydroisoquinoline Derivatives To Enhance Lysosome Biogenesis as Preclinical Candidates for the Treatment of Alzheimer's Disease” (J Med Chem, 2024)

Columns and labels:
[1] = Induction of TFEB nuclear translocation in human HeLa cells expressing EGFP at 10 uM measured at 3 hrs by fluorescence microscopic analysis; format: functional
[2] = Induction of TFEB nuclear translocation in human HeLa cells expressing EGFP at 30 uM measured at 6 hrs by fluorescence microscopic analysis; format: functional
[3] = Induction of TFEB nuclear translocation in human HeLa cells expressing EGFP at 10 uM measured at 6 hrs by fluorescence microscopic analysis; format: functional
[4] = Induction of TFEB nuclear translocation in human HeLa cells expressing EGFP at 30 uM measured at 3 hrs by fluorescence microscopic analysis; format: functional
HeLa = assay: Cytotoxicity against human HeLa cells at 30 uM; format: toxicity, cell-based

Row | SMILES | Activity [1] [%] | Activity [2] [%] | Activity [3] [%] | Activity [4] [%] | Activity (HeLa)
1 | c1ccc2c(CCC3c4cc5c(cc4CCN3Cc3cncnc3)OCO5)c[nH]c2c1 (configuration not stated) | 10 | 20 | 10 | 20 | 
2 | CC(C)CCN1CCc2cc3c(cc2C1CCc1c[nH]c2ccccc12)OCO3 (configuration not stated) | 20 | 80 | 20 | 70 | 
3 | OCn1cc(CCC2c3cc4c(cc3CCN2CC2CCOCC2)OCO4)c2ccccc21 (configuration not stated) | 5 | 8 | 5 | 8 | 
4 | c1ccc2[nH]c(CCC3c4cc5c(cc4CCN3CC3CCOCC3)OCO5)cc2c1 (configuration not stated) | 5 | 39 | 5 | 39 | 
5 | Fc1ccc2[nH]cc(CC[C@@H]3c4cc5c(cc4CCN3CC3CCOCC3)OCO5)c2c1 | 29 | 82 | 33 | 70 | 
6 | Cc1ccc2[nH]cc(CCC3NCCc4cc5c(cc43)OCO5)c2c1 (configuration not stated) | 10 | 60 | 10 | 45 | 
7 | c1ccc2c(CCC3c4cc5c(cc4CCN3CC3CCOCC3)OCO5)csc2c1 (configuration not stated) | 5 | 20 | 5 | 15 | 
8 | CCC(=O)N1CCN(c2ccc(-n3c(=O)ccc4cnc5ccc(-c6cnc7ccccc7c6)cc5c43)cc2C(F)(F)F)CC1 [TORIN1] | 100 | 100 | 100 | 100 | 
9 | COc1cc2c(cc1OC)C(CCc1c[nH]c3ccc(Br)cc13)N(CC1CCOCC1)CC2 (configuration not stated) | 53 | 94 | 63 | 89 | 
10 | Brc1ccc2[nH]cc(CCC3c4cc5c(cc4CCN3CC3CCOCC3)OCO5)c2c1 (configuration not stated) | 10 | 95 | 30 | 85 | 
11 | c1ccc2c(c1)ccn2CCC1c2cc3c(cc2CCN1CC1CCOCC1)OCO3 (configuration not stated) | 5 | 5 | 5 | 8 | 
12 | COc1ccc2[nH]cc(CC[C@H]3c4cc(OC)c(OC)cc4CCN3CC3CCOCC3)c2c1 | 44 | 91 | 61 | 85 | 
13 | COc1cc2c(cc1O)C(CCc1c[nH]c3ccccc13)N(CC1CCOCC1)CC2 (configuration not stated) | 22 | 77 | 37 | 75 | Toxic
14 | COc1cc2c(cc1OC)C(CCc1c[nH]c3ccc(Cl)cc13)N(CC1CCOCC1)CC2 (configuration not stated) | 27 | 90 | 37 | 84 | 
15 | CCOc1cc2c(cc1OC)CCN(CC1CCOCC1)C2CCc1c[nH]c2ccccc12 (configuration not stated) | 17 | 82 | 28 | 75 | 
16 | COc1cc2c(cc1OC)C(CCc1c[nH]c3ccc(C)cc13)N(CC1CCOCC1)CC2 (configuration not stated) | 38 | 91 | 53 | 92 | 
17 | c1ccc2c(CC[C@H]3NCCc4cc5c(cc43)OCO5)c[nH]c2c1 | 18 | 77 | 23 | 76 | 
18 | COc1ccc2[nH]cc(CCC3c4cc5c(cc4CCN3CC3CCOCC3)OCO5)c2c1 (configuration not stated) | 74 | 98 | 76 | 88 | 
19 | Fc1ccc2[nH]cc(CCC3NCCc4cc5c(cc43)OCO5)c2c1 (configuration not stated) | 36 | 92 | 54 | 88 | 
20 | Oc1cc2c(cc1O)C(CCc1c[nH]c3ccccc13)N(CC1CCOCC1)CC2 (configuration not stated) | 10 | 60 | 10 | 28 | Toxic
21 | c1ccc(COc2ccc3[nH]cc(CCC4c5cc6c(cc5CCN4CC4CCOCC4)OCO6)c3c2)cc1 (configuration not stated) | 12 | 88 | 30 | 75 | 
22 | c1ccc2c(CCC3c4cc5c(cc4CCN3CCC3CCOCC3)OCO5)c[nH]c2c1 (configuration not stated) | 5 | 80 | 5 | 65 | 
23 | c1ccc2c(CCC3c4cc5c(cc4CCN3CC3CCCCC3)OCO5)c[nH]c2c1 (configuration not stated) | 7 | 42 | 8 | 11 | 
24 | COc1cc2c(cc1OC)C(CCc1c[nH]c3ccc(F)cc13)N(CC1CCOCC1)CC2 (configuration not stated) | 22 | 95 | 47 | 88 | 
25 | O=CN1CCc2cc3c(cc2C1CCc1c[nH]c2ccccc12)OCO3 (configuration not stated) | 6 | 4 | 5 | 6 | 

Row | SMILES | Activity [1] [%] | Activity [2] [%] | Activity [3] [%] | Activity [4] [%] | Activity (HeLa)
26 | COc1cc2c(cc1O)CCN(CC1CCOCC1)C2CCc1c[nH]c2ccccc12 (configuration not stated) | 20 | 80 | 20 | 70 | Toxic
27 | CC(C)CN1CCc2cc3c(cc2C1CCc1c[nH]c2ccccc12)OCO3 (configuration not stated) | 20 | 82 | 20 | 74 | 
28 | c1ccc2c(CCC3c4cc5c(cc4CCN3CC3CCOCC3)OCO5)c[nH]c2c1 (configuration not stated) | 47 | 93 | 67 | 86 | 
29 | COc1cc2c(cc1C)C(CCc1c[nH]c3ccccc13)N(CC1CCOCC1)CC2 (configuration not stated) | 18 | 81 | 30 | 76 | 
30 | CCN1CCc2cc3c(cc2C1CCc1c[nH]c2ccccc12)OCO3 (configuration not stated) | 9 | 84 | 22 | 65 | 
31 | c1ccc(CN2CCc3cc4c(cc3C2CCc2c[nH]c3ccccc23)OCO4)cc1 (configuration not stated) | 10 | 10 | 10 | 10 | 
32 | c1cnc2[nH]cc(CCC3c4cc5c(cc4CCN3CC3CCOCC3)OCO5)c2c1 (configuration not stated) | 10 | 64 | 10 | 64 | 
33 | Fc1ccc2[nH]cc(CC[C@H]3c4cc5c(cc4CCN3CC3CCOCC3)OCO5)c2c1 | 56 | 98 | 60 | 90 | 
34 | CC(=O)N1CCc2cc3c(cc2C1CCc1c[nH]c2ccccc12)OCO3 (configuration not stated) | 6 | 10 | 7 | 8 | 
35 | c1cnc2[nH]cc(CCC3NCCc4cc5c(cc43)OCO5)c2c1 (configuration not stated) | 30 | 70 | 30 | 70 | Toxic
36 | COc1cc2c(cc1F)C(CCc1c[nH]c3ccccc13)N(CC1CCOCC1)CC2 (configuration not stated) | 17 | 79 | 31 | 70 | 
37 | COCCN1CCc2cc3c(cc2C1CCc1c[nH]c2ccccc12)OCO3 (configuration not stated) | 30 | 80 | 30 | 70 | 
38 | NC(=O)CN1CCc2cc3c(cc2C1CCc1c[nH]c2ccccc12)OCO3 (configuration not stated) | 5 | 20 | 5 | 20 | 
39 | Cn1cc(CCC2c3cc4c(cc3CCN2CC2CCOCC2)OCO4)c2ccccc21 (configuration not stated) | 5 | 26 | 5 | 26 | 
40 | Clc1ccc2[nH]cc(CCC3c4cc5c(cc4CCN3CC3CCOCC3)OCO5)c2c1 (configuration not stated) | 15 | 92 | 20 | 83 | 
41 | N#Cc1ccc2[nH]cc(CCC3c4cc5c(cc4CCN3CC3CCOCC3)OCO5)c2c1 (configuration not stated) | 10 | 64 | 10 | 64 | 
42 | Oc1ccc2[nH]cc(CCC3c4cc5c(cc4CCN3CC3CCOCC3)OCO5)c2c1 (configuration not stated) | 15 | 81 | 21 | 72 | 
43 | COc1ccc2[nH]cc(CC[C@@H]3c4cc(OC)c(OC)cc4CCN3CC3CCOCC3)c2c1 | 23 | 80 | 37 | 74 | 
44 | c1ccc2c(CCC3c4cc5c(cc4CCN3Cc3ccncc3)OCO5)c[nH]c2c1 (configuration not stated) | 45 | 90 | 50 | 80 | 
45 | COc1cc2c(cc1OC)C(CCc1c[nH]c3ccc(O)cc13)N(CC1CCOCC1)CC2 (configuration not stated) | 25 | 88 | 34 | 85 | Toxic
46 | c1ccc2c(CC[C@@H]3NCCc4cc5c(cc43)OCO5)c[nH]c2c1 | 30 | 96 | 34 | 89 | 
47 | Cc1ccc2[nH]cc(CCC3c4cc5c(cc4CCN3CC3CCOCC3)OCO5)c2c1 (configuration not stated) | 20 | 85 | 30 | 83 | 
48 | c1ccc2c(CCC3c4cc5c(cc4CCN3CC3CCNCC3)OCO5)c[nH]c2c1 (configuration not stated) | 22 | 100 | 35 | 96 | Toxic
49 | CN1CCC(CN2CCc3cc4c(cc3C2CCc2c[nH]c3ccccc23)OCO4)CC1 (configuration not stated) | 30 | 81 | 40 | 80 | Toxic
50 | CCCN1CCc2cc3c(cc2C1CCc1c[nH]c2ccccc12)OCO3 (configuration not stated) | 11 | 80 | 12 | 55 | 
